These results are taken from patent US12478625B2, “Pharmaceutical compositions and crushable tablets including amorphous solid dispersions of dasatinib and uses” (Handa Therapeutics, LLC, priority 2021, dated 2025).

SMILES strings stand for the structures.

What all share (details): promptly after spray drying and vacuum drying
A short description of series [1]: Amorphicity / crystallinity by XRD on stability. It is filed as physicochemical. On the procedure: Diffraction patterns were obtained using a Rigaku MiniFlex 600.
The percent of crystallinity was calculated as follows: % crystallinity=area of crystalline peaks/(area of crystalline peaks+amorphous peaks)
(§1) ASDs stored at 25° C./60% RH and 25° C./protected were additionally evaluated at 9 months and 12 months.
Amorphicity and glass transition temperature were assessed using the methodology described in Example 1.

Series [2] is described as follows: Water content by coulometric Karl Fischer titration. Type of series: physicochemical.
Series [3] in a line: Assay / total impurities by HPLC on stability. It is filed as physicochemical. On the procedure: as §1
LOD was evaluated using the Computrac Max 4000, in which approximately 0.5 g of material was spread evenly across the sample pan. Assay/impurities of the ASDs were assessed using the instrument parameters, measurement conditions, and gradient profile specified in Table 11.

The nature of series [4]: Glass transition temperature by modulated DSC.

In the case of `Cc1nc(Nc2ncc(C(=O)Nc3c(C)cccc3Cl)s2)cc(N2CCN(CCO)CC2)n1` [spray-dried material of 100% dasatinib], the XRD crystallinity entry in series [1] was “exhibited crystalline character”. This compound also registered a Water content in series [2] of 0.81%. Moreover, the assay value in series [3] was found to be 97.4%. Also, the “glass transition temperature (Tg)” value in series [4] came to 125.61 °C.
